# Counter-ions that a name gives are not always drawn.
row,Compound,melting point
1,"CS(=O)(=O)Nc1cccc(S(=O)(=O)N2CCOc3c(N4CCNCC4)cccc32)c1 [Compound 20, N-[3-(8-Piperazin-1-yl-2,3-dihydro-benzo[1,4]oxazine-4-sulfonyl)-phenyl]-methanesulfonamide]",158.5 to 163.5 °C
2,Cc1cc(N2CCNCC2)c2c(c1)N(S(=O)(=O)c1ccc(Cl)cc1)CCO2 (as salt: hydrochloride),147.9 to 152.9 °C
3,O=S(=O)(c1ccccc1)N1CCOc2c(N3CCNCC3)cc(Cl)cc21 (as salt: hydrochloride),202 to 205 °C

# From US8377931B2, “Benzoxazine derivatives and uses thereof” (Roche Palo Alto LLC, priority 2002, dated 2013)
